This passage reports IC50 results from patent US8575321B2, “Benzylbenzene derivatives and methods of use” (Theracos, Inc., priority 2007, dated 2013).

As usually defined, the IC50 is the midpoint of a concentration-inhibition curve.

For one assay, the target named is T1, human SGLT2 (Homo sapiens, UniProt P31639).
T1 construct: A full-length cDNA clone expressing human SGLT2
T1 sequence (P31639 1-672): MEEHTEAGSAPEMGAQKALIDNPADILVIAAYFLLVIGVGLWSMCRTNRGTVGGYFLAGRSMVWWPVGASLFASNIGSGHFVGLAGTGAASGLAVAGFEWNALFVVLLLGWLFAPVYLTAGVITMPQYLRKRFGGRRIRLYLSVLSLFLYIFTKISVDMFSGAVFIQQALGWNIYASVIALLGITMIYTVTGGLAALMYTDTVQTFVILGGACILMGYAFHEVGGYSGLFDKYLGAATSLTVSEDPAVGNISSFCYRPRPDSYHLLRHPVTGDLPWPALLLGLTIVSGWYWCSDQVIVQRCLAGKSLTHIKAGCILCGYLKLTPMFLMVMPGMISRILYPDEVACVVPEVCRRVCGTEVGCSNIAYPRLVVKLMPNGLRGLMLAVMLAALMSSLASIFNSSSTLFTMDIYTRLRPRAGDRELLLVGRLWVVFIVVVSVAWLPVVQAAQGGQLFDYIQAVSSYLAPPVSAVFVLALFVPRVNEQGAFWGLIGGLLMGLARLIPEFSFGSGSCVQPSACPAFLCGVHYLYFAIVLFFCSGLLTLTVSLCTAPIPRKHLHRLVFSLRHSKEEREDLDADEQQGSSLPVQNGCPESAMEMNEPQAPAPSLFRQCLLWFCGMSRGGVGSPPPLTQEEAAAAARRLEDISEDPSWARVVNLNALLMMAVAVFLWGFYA
Briefly: Methyl-α-D-[U-14C]glucopyranoside uptake assay in HEK293.ETN cells stably expressing human SGLT2. The assay is classed as cell-based. The note with it: 1.5 h incubation. The source says:
A full-length cDNA clone expressing human SGLT2 (GenScript Corporation) was subcloned into Hind III and Not I sites of pEAK15 expression vector. Clones harboring the cDNA inserts were identified by restriction analysis.
Plasmid containing human SGLT2 was linearized with Nsi I and purified by agarose gel electrophoresis. Using Lipofectamine 2000 Transfection Reagent (Invitrogen Corporation), DNA was transfected into HEK293.ETN cells and cultured in Dulbecco's Modified Eagle Medium (DMEM) containing 10% fetal bovine serum (FBS) at 37° C. under 5% CO2 for 24 h. Transfectants were selected in the same growth medium supplemented with puromycin (Invitrogen Corporation) for two weeks. Puromycin-resistant cells were recovered and seeded on a fresh 96-well plate (single cell per well) and cultured in the presence of puromycin until cells became confluent. Puromycin-resistant clones were evaluated for SGLT2 activity in the methyl-α-D-[U-^14C]glucopyranoside uptake assay described below.
(§1) Cells expressing SGLT1 or SGLT2 were seeded on 96-well ScintiPlate scintillating plates (PerkinElmer, Inc.) in DMEM containing 10% FBS (1×10^5 cells per well in 100 μl medium) incubated at 37° C. under 5% CO2 for 48 h prior to the assay. Cells were washed twice with 150 μl of either sodium buffer (137 mM NaCl, 5.4 mM KCl, 2.8 mM CaCl2, 1.2 mM MgCl2, 10 mM tris(hydroxymethyl)aminomethane/N^2-hydroxyethylpiperazine-N′-ethanesulfonic acid [Tris/Hepes], pH 7.2) or sodium-free buffer (137 mM N-methyl-glucamine, 5.4 mM KCl, 2.8 mM CaCl2, 1.2 mM MgCl2, 10 mM Tris/Hepes, pH 7.2). Test compound in 50 μl each of sodium or sodium-free buffer containing 40 μCi/ml methyl-α-D-[U-^14C]glucopyranoside (Amersham Biosciences/GE Healthcare), either with (symbols in parentheses) or without (symbols without parentheses) 25% human serum, was added per well of a 96-well plate and incubated at 37° C. with shaking for either 2 h (SGLT1 assay) or 1.5 h (SGLT2 assay). Cells were washed twice with 150 μl of wash buffer (137 mM N-methylglucamine, 10 mM Tris/Hepes, pH 7.2) and methyl-α-D-[U-^14C]glucopyranoside uptake was quantitated using a TopCount scintillation counter (PerkinElmer, Inc.). Sodium-dependent glucopyranoside uptake was measured by subtracting the values obtained with sodium-free buffer from those obtained using sodium buffer (average of triplicate determinations).

In the next assay the target is T2, human SGLT1 (Homo sapiens, UniProt P13866).
T2 construct: Full-length human SGLT1 cDNA on pDream2.1 expression vector; host or cells: COS-7 cells (American Type Culture Collection)
T2 sequence (P13866 1-664): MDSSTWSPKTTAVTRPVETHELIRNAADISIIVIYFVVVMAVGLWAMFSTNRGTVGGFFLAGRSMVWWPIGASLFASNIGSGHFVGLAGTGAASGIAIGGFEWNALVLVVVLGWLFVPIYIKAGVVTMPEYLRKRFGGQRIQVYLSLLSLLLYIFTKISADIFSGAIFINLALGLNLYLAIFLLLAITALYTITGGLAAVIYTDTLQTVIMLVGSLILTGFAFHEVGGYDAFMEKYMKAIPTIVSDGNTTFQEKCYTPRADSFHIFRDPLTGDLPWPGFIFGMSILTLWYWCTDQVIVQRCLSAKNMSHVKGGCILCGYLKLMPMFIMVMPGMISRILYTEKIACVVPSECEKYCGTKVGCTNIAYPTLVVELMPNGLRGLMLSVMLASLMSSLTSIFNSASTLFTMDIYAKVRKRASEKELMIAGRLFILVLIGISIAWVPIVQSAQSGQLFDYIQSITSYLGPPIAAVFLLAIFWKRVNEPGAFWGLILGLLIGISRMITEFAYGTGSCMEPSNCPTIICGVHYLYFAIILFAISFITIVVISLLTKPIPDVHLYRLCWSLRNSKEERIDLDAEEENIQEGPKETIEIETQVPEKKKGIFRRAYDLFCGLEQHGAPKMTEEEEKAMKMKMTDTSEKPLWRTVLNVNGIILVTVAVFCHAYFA
Briefly: Methyl-α-D-[U-14C]glucopyranoside uptake assay in COS-7 cells expressing human SGLT1. The assay is classed as cell-based. The following applies: 2 h incubation. The procedure: Full-length human SGLT1 cDNA on pDream2.1 expression vector was obtained from GenScript Corporation and propagated in Escherichia coli strain DH5α using Luria-Bertani (LB) medium containing ampicillin. Plasmid DNA was isolated using the QIAGEN Plasmid Midi Kit (QIAGEN Inc.). […] Transfected cells were stored in DMEM containing 10% dimethyl sulfoxide (DMSO) at −80° C.
as §1

Setting [1] is: incubation with 25% human serum (symbols in parentheses).
The mark [2] stands for this setting: without human serum (symbols without parentheses).

Consider `OC[C@H]1O[C@@H](c2ccc(Cl)c(Cc3ccc(OCCOCC(F)(F)F)cc3)c2)[C@H](O)[C@@H](O)[C@@H]1O` [Compound BT, (2S,3R,4R,5S,6R)-2-(4-chloro-3-(4-(2-(2,2,2-trifluoroethoxy)ethoxy)benzyl)phenyl)-6-(hydroxymethyl)tetrahydro-2H-pyran-3,4,5-triol], for which the IC50 on human SGLT2 (setting [1]) is < 1000 nM; on human SGLT1 (setting [1]) it was 1000 to 10000 nM.
On to `OC[C@H]1O[C@@H](c2ccc(Cl)c(Cc3ccc(CCOC4CC4)cc3)c2)[C@H](O)[C@@H](O)[C@@H]1O` [Compound CT, (2S,3R,4R,5S,6R)-2-(4-chloro-3-(4-(2-cyclopropoxyethyl)benzyl)phenyl)-6-(hydroxymethyl)tetrahydro-2H-pyran-3,4,5-triol], for which the IC50 on human SGLT2 (setting [1]) is < 1000 nM; on human SGLT1 (setting [1]) it was > 10000 nM.
On the same counts, the results for `OC[C@H]1O[C@@H](c2ccc(Cl)c(Cc3ccc(OCC#CC4CC4)cc3)c2)[C@H](O)[C@@H](O)[C@@H]1O` [Compound AV, (2S,3R,4R,5S,6R)-2-(4-chloro-3-(4-(3-cyclopropylprop-2-ynyloxy)benzyl)phenyl)-6-(hydroxymethyl)tetrahydro-2H-pyran-3,4,5-triol] are < 1000 nM and > 10000 nM.
For the compound `CC1(OCCOc2ccc(Cc3cc([C@@H]4O[C@H](CO)[C@@H](O)[C@H](O)[C@H]4O)ccc3Cl)cc2)CC1` [Compound CP, (2S,3R,4R,5S,6R)-2-(4-chloro-3-(4-(2-(1-methylcyclopropoxy)ethoxy)benzyl)phenyl)-6-(hydroxymethyl)tetrahydro-2H-pyran-3,4,5-triol], the results for the IC50 at human SGLT2 (setting [1]) and at human SGLT1 (setting [1]) were < 1000 nM and > 10000 nM, respectively.
Regarding `OC[C@H]1O[C@@H](c2ccc(Cl)c(Cc3ccc(OC/C=C/C4CC4)cc3)c2)[C@H](O)[C@@H](O)[C@@H]1O` [Compound BZ, (2S,3R,4R,5S,6R)-2-(4-chloro-3-(4-((E)-3-cyclopropylallyloxy)benzyl)phenyl)-6-(hydroxymethyl)tetrahydro-2H-pyran-3,4,5-triol], the values for the IC50 at human SGLT2 (setting [1]) and on human SGLT1 (setting [1]) were < 1000 nM and > 10000 nM, respectively.
For the compound `OC[C@H]1O[C@@H](c2ccc(Cl)c(Cc3ccc(OCCOCC(F)F)cc3)c2)[C@H](O)[C@@H](O)[C@@H]1O` [Compound CF, (2S,3R,4R,5S,6R)-2-(4-chloro-3-(4-(2-(2,2-difluoroethoxy)ethoxy)benzyl)phenyl)-6-(hydroxymethyl)tetrahydro-2H-pyran-3,4,5-triol], the IC50 on human SGLT2 (setting [2]) is < 1000 nM; on human SGLT1 (setting [2]), 1000 to 10000 nM.
As to `COCC#CCOc1ccc(Cc2cc([C@@H]3O[C@H](CO)[C@@H](O)[C@H](O)[C@H]3O)ccc2Cl)cc1` [Compound Z, (2S,3R,4R,5S,6R)-2-(4-chloro-3-(4-(4-methoxybut-2-ynyloxy)benzyl)phenyl)-6-(hydroxymethyl)tetrahydro-2H-pyran-3,4,5-triol], the IC50 was < 1000 nM on human SGLT2 (setting [1]) and > 10000 nM at human SGLT1 (setting [1]).
As to `OC[C@H]1O[C@@H](c2ccc(Cl)c(Cc3ccc(OCCOCCF)cc3)c2)[C@H](O)[C@@H](O)[C@@H]1O` [Compound CC, (2S,3R,4R,5S,6R)-2-(4-chloro-3-(4-(2-(2-fluoroethoxy)ethoxy)benzyl)phenyl)-6-(hydroxymethyl)tetrahydro-2H-pyran-3,4,5-triol], the IC50 at human SGLT2 (setting [2]) was < 1000 nM; at human SGLT1 (setting [2]), 1000 to 10000 nM.
